Experimental data taken from ChEMBL document CHEMBL2311474, “Chiral 6,7-bis(hydroxymethyl)-1H,3H-pyrrolo[1,2-c]thiazoles with anti-breast cancer properties” (Eur J Med Chem, 2013).

What was measured:
[1] = Cytotoxicity against human HFF1 cells after 96 hrs by MTT assay; assay type: cell-based; conditions: HFF-1, 96 h
[2] = system: MCF7; experiment: Cytotoxicity against human MCF7 cells after 72 hrs by MTT assay; assay type: functional, cell-based; conditions: MCF7, 72 h
[3] = system: MCF7; experiment: Cytotoxicity against human MCF7 cells after 96 hrs by MTT assay; assay type: functional, cell-based; conditions: MCF7, 96 h
[4] = system: MCF7; experiment: Cytotoxicity against human MCF7 cells after 24 hrs by MTT assay; assay type: functional, cell-based; conditions: MCF7, 24 h
[5] = system: MCF7; experiment: Cytotoxicity against human MCF7 cells after 48 hrs by MTT assay; assay type: functional, cell-based; conditions: MCF7, 48 h

SMILES | IC50 [1] | IC50 [2] | IC50 [3] | IC50 [4] | IC50 [5]
Cc1c(CO)cc2n1[C@@H](c1ccccc1)SC2 | 154 µM | – | – | – | –
Cc1cc(CO)c2n1[C@@H](c1ccccc1)SC2 | 104 µM | – | – | – | –
Cc1c(COC(=O)NCc2ccccc2)cc2n1[C@@H](c1ccccc1)SC2 | 48.2 µM | – | – | – | –
OCc1c(CO)c(-c2ccccc2)n2c1CS[C@@H]2c1ccccc1 | – | 52.1 µM | 70.2 µM | 92.6 µM | 61.8 µM
OCc1c(CO)c(-c2ccc(F)cc2)n2c1CS[C@@H]2c1ccccc1 | – | 44.6 µM | 26.4 µM | 56.7 µM | 46.3 µM
Cc1c(CO)c(CO)c2n1[C@H](c1ccccc1)SC2 | – | 0.54 µM | 0.3 µM | 1.75 µM | 0.54 µM
Cc1c(CO)cc2n1CSC2 | – | 192 µM | 82.3 µM | 186 µM | 156 µM
Cc1cc(CO)c2n1CSC2 | – | 40.9 µM | 44.6 µM | 75.9 µM | 54.7 µM
Cc1c(CO)c(CO)c2n1CSC2 | – | 22.6 µM | 21.5 µM | 37.8 µM | 38.1 µM
COc1cc([C@H]2SCc3c(CO)c(CO)c(C)n32)cc(OC)c1OC | – | 54.5 µM | 59.9 µM | > 200 µM | 127 µM
OCc1cn2c(c1CO)CS[C@@H]2c1ccccc1 | – | – | – | 70.8 µM | 19.4 µM
OCc1cn2c(c1CO)CS[C@@H]2c1cccnc1 | – | 61.7 µM | 30.6 µM | > 200 µM | 128 µM
